Columns and labels:
basil ‘Genovese’ = assay: Yield, fresh weight of basil after insecticide, fungicide, PGRs and safeners (Example 4, Table 10); assay type: in vivo; details: DA-A, check 31.8
Method in brief: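 Postemergence greenhouse applications of chlorpyrifos, chlorothalonil, mepiquat-chloride, paclobutrazol, napthalic anhydride or isoxadifen-ethyl. Injury rated visually for phytotoxicity, chlorosis and stunting on a 0–100% scale (0 = no response, 100 = plant death). Plants harvested ~4 weeks after treatment, pooled over replicates for nutrient content analysis.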

kale 'Red Russian' [1] = assay: Visual injury of kale after insecticide, fungicide, PGRs, safeners (Example 4)
Method: (§1) Greenhouse and laboratory studies were conducted to ascertain the tolerance and nutritional quality differences following postemergence applications of the insecticide chlorpyrifos, the fungicide chlorothalonil, the PGRs mepiquat-chloride and paclobutrazol, and the safeners napthalic anhydride and isoxadifen-ethyl on kale ‘Red Russian’ and basil ‘Genovese’. Visual injury was rated based on general phytotoxicity, chlorosis, and visual stunting and each measurement was based on a percent scale from 0 to 100 where 0 equals no visual response and 100 equals complete plant death. Kale and basil were both harvested approximately 4 weeks after treatments and plants were pooled over replicates for content analysis of crude protein, crude amino acid content, acid detergent fiber, neutral detergent fiber, total fatty acids, and/or key mineral content (including Na, Ca, P, Mg, K, Fe, Mn, Zn, and Cu). In addition, the amounts of key individual amino acids (aspartic acid, threonine, glutamic acid, proline, glycine, cysteine, valine, leucine, isoleucine, methionine, and lysine) and composite classifications of fatty acid (saturated fatty acids, monounsaturated fatty acids, polyunsaturated fatty acids) were also analyzed from these sub-samples for kale (Tables 10-14).

kale ‘Red Russian’ = assay: Yield, fresh weight of kale after insecticide, fungicide and PGRs (Example 4, Table 12); assay type: in vivo; details: 28 DA-A, Untreated Check 106.9
Method: as §1

kale 'Red Russian' [2] = assay: Content analysis of kale: protein, amino acids, fiber, fatty acids, minerals (Example 4, Tables 12-14); assay type: in vivo; details: 28 DA-A
Method: as §1

[3] = 7 DA-A, rates g ai/ha: chlropyrifos 1120, chlorothalonil 2630, paclobutrazol 3.23, mepiquat-chloride 12.3, + NIS 0.25 % v/v
[4] = 7 DA-A, rates g ai/ha: chlropyrifos 3370, chlorothalonil 7900, paclobutrazol 9.7, mepiquat-chloride 37, + NIS 0.25 % v/v
[5] = 14 DA-A, rates g ai/ha: chlropyrifos 1120, chlorothalonil 2630, paclobutrazol 3.23, mepiquat-chloride 12.3, + NIS 0.25 % v/v
[6] = 14 DA-A, rates g ai/ha: chlropyrifos 3370, chlorothalonil 7900, paclobutrazol 9.7, mepiquat-chloride 37, + NIS 0.25 % v/v
[7] = 28 DA-A, rates g ai/ha: chlropyrifos 1120, chlorothalonil 2630, paclobutrazol 3.23, mepiquat-chloride 12.3, + NIS 0.25 % v/v
[8] = 28 DA-A, rates g ai/ha: chlropyrifos 3370, chlorothalonil 7900, paclobutrazol 9.7, mepiquat-chloride 37, + NIS 0.25 % v/v
[9] = rates g ai/ha: chlropyrifos 1120, chlorothalonil 2630, paclobutrazol 3.23, mepiquat-chloride 12.3, + NIS 0.25 % v/v
[10] = rates g ai/ha: chlropyrifos 3370, chlorothalonil 7900, paclobutrazol 9.7, mepiquat-chloride 37, + NIS 0.25 % v/v
[11] = first-listed rate g ai/ha: chlropyrifos ###, chlorothalonil ###, paclobutrazol 3.2, mepiquat-chloride 12, + NIS 0.3 % v/v

CC(C)(C)[C@@H](O)[C@@H](Cc1ccc(Cl)cc1)n1cncn1 (racemic) [paclobutrazol]
Yield Fresh weight (basil ‘Genovese’; rates g ai/ha: chlropyrifos 1120, chlorothalonil 2630, paclobutrazol 3.23, mepiquat-chloride 12.3, Isoxadifen 8, Napthalic anhydride 264, + NIS 0.25 % v/v): 22.4 grams | Yield Fresh weight (basil ‘Genovese’; rates g ai/ha: chlropyrifos 3370, chlorothalonil 7900, paclobutrazol 9.7, mepiquat-chloride 37, Isoxadifen 16, Napthalic anhydride 527, + NIS 0.25 % v/v): 24.4 grams | Phytotoxicity Chlorosis (kale 'Red Russian' [1]; [3]): 1% | Phytotoxicity General (kale 'Red Russian' [1]; [3]): 10% | Phytotoxicity Stunting (kale 'Red Russian' [1]; [3]): 6% | Phytotoxicity Chlorosis (kale 'Red Russian' [1]; [4]): 0% | Phytotoxicity General (kale 'Red Russian' [1]; [4]): 9% | Phytotoxicity Stunting (kale 'Red Russian' [1]; [4]): 11% | Phytotoxicity Chlorosis (kale 'Red Russian' [1]; [5]): 10% | Phytotoxicity General (kale 'Red Russian' [1]; [5]): 3% | Phytotoxicity Stunting (kale 'Red Russian' [1]; [5]): 19% | Phytotoxicity Chlorosis (kale 'Red Russian' [1]; [6]): 16% | Phytotoxicity General (kale 'Red Russian' [1]; [6]): 6% | Phytotoxicity Stunting (kale 'Red Russian' [1]; [6]): 28% | Phytotoxicity Chlorosis (kale 'Red Russian' [1]; [7]): 3% | Phytotoxicity General (kale 'Red Russian' [1]; [7]): 3% | Phytotoxicity Stunting (kale 'Red Russian' [1]; [7]): 21% | Phytotoxicity Chlorosis (kale 'Red Russian' [1]; [8]): 0% | Phytotoxicity General (kale 'Red Russian' [1]; [8]): 4% | Phytotoxicity Stunting (kale 'Red Russian' [1]; [8]): 19% | Yield Fresh weight (kale ‘Red Russian’; [9]): 107.2 grams | Yield Fresh weight (kale ‘Red Russian’; [10]): 108.3 grams | Alanine, Percent Increase over the Untreated Check (on a % dry matter basis) (kale 'Red Russian' [2]; [11]): −9 % check | Aspartic acid, Percent Increase over the Untreated Check (on a % dry matter basis) (kale 'Red Russian' [2]; [11]): −9 % check | Cysteine, Percent Increase over the Untreated Check (on a % dry matter basis) (kale 'Red Russian' [2]; [11]): −6 % check | Glutamic acid, Percent Increase over the Untreated Check (on a % dry matter basis) (kale 'Red Russian' [2]; [11]): −5 % check | Glycine, Percent Increase over the Untreated Check (on a % dry matter basis) (kale 'Red Russian' [2]; [11]): −12 % check | Iso-leucine, Percent Increase over the Untreated Check (on a % dry matter basis) (kale 'Red Russian' [2]; [11]): −6 % check | Leucine, Percent Increase over the Untreated Check (on a % dry matter basis) (kale 'Red Russian' [2]; [11]): −7 % check | Lysine, Percent Increase over the Untreated Check (on a % dry matter basis) (kale 'Red Russian' [2]; [11]): −8 % check | Methionine, Percent Increase over the Untreated Check (on a % dry matter basis) (kale 'Red Russian' [2]; [11]): −13 % check | Proline, Percent Increase over the Untreated Check (on a % dry matter basis) (kale 'Red Russian' [2]; [11]): −4 % check | Threonine, Percent Increase over the Untreated Check (on a % dry matter basis) (kale 'Red Russian' [2]; [11]): −9 % check | Total Amino acids, Percent Increase over the Untreated Check (on a % dry matter basis) (kale 'Red Russian' [2]; [11]): −8 % check | Total Protein, Percent Increase over the Untreated Check (on a % dry matter basis) (kale 'Red Russian' [2]; [11]): 0 % check | Valine, Percent Increase over the Untreated Check (on a % dry matter basis) (kale 'Red Russian' [2]; [11]): −6 % check | ADF, Percent Increase Over the Untreated Check (on a % dry matter basis) (kale 'Red Russian' [2]; [9]): 11 % check | Calcium, Percent Increase Over the Untreated Check (on a % dry matter basis) (kale 'Red Russian' [2]; [9]): 11 % check | Copper, Percent Increase Over the Untreated Check (on a % dry matter basis) (kale 'Red Russian' [2]; [9]): 12 % check | Iron, Percent Increase Over the Untreated Check (on a % dry matter basis) (kale 'Red Russian' [2]; [9]): −3 % check | Magnesium, Percent Increase Over the Untreated Check (on a % dry matter basis) (kale 'Red Russian' [2]; [9]): 8 % check | Manganese, Percent Increase Over the Untreated Check (on a % dry matter basis) (kale 'Red Russian' [2]; [9]): 10 % check | NDF, Percent Increase Over the Untreated Check (on a % dry matter basis) (kale 'Red Russian' [2]; [9]): −3 % check | Phosphorous, Percent Increase Over the Untreated Check (on a % dry matter basis) (kale 'Red Russian' [2]; [9]): 6 % check | Potassium, Percent Increase Over the Untreated Check (on a % dry matter basis) (kale 'Red Russian' [2]; [9]): 3 % check | Sodium, Percent Increase Over the Untreated Check (on a % dry matter basis) (kale 'Red Russian' [2]; [9]): −1 % check | Zinc, Percent Increase Over the Untreated Check (on a % dry matter basis) (kale 'Red Russian' [2]; [9]): 11 % check | ADF, Percent Increase Over the Untreated Check (on a % dry matter basis) (kale 'Red Russian' [2]; [10]): −1 % check | Calcium, Percent Increase Over the Untreated Check (on a % dry matter basis) (kale 'Red Russian' [2]; [10]): 22 % check | Copper, Percent Increase Over the Untreated Check (on a % dry matter basis) (kale 'Red Russian' [2]; [10]): 28 % check | Iron, Percent Increase Over the Untreated Check (on a % dry matter basis) (kale 'Red Russian' [2]; [10]): −5 % check | Magnesium, Percent Increase Over the Untreated Check (on a % dry matter basis) (kale 'Red Russian' [2]; [10]): 11 % check | Manganese, Percent Increase Over the Untreated Check (on a % dry matter basis) (kale 'Red Russian' [2]; [10]): 20 % check | NDF, Percent Increase Over the Untreated Check (on a % dry matter basis) (kale 'Red Russian' [2]; [10]): −8 % check | Phosphorous, Percent Increase Over the Untreated Check (on a % dry matter basis) (kale 'Red Russian' [2]; [10]): 12 % check | Potassium, Percent Increase Over the Untreated Check (on a % dry matter basis) (kale 'Red Russian' [2]; [10]): 15 % check | Sodium, Percent Increase Over the Untreated Check (on a % dry matter basis) (kale 'Red Russian' [2]; [10]): 11 % check | Zinc, Percent Increase Over the Untreated Check (on a % dry matter basis) (kale 'Red Russian' [2]; [10]): 13 % check

From US20110053773A1, “METHODS OF IMPROVING NUTRITIONAL VALUE OF PLANTS” (UNIVERSITY OF TENNESSEE RESEARCH FOUNDATION, priority 2009, published 2011)
